The target in one data set is PAN endonuclease (Influenza A virus, UniProt Q5EP34). It is filed as biochemical, H5N1 influenza virus A/Vietnam/1203/2004.
The next data set has as its target PAN (Influenza A virus, UniProt Q5EP34). The data set is classed as binding, H5N1 influenza virus A/Vietnam/1203/2004.
Data set [1] has as its system influenza virus. The settings on record: cited from earlier work.
The subject of data set [2] is influenza virus. The settings on record: mouse, in vivo; cited from earlier work.
Data set [3] concerns H1N1 influenza A virus (A/PuertoRico/8/34). Nature of the data set: microbe, parasite or virus in culture. The settings on record: H1N1, MDCK, 72 h, read-out: Antiviral Activity IC50. The data set is classed as cell-based.
The nature of a further data set: in vitro. Conditions: dog.
The target of data set [4] is influenza A polymerase. The settings on record: read-out: Reported IC50; cited from earlier work.
Data set [5] relates to influenza A polymerase. It is filed as biochemical, influenza A virus.
For data set [6], the system named is H1N1 influenza A virus (A/PuertoRico/8/34). The arrangement: method as in PMID 22211528. Conditions: plaque formation, MDCK cells, 72 h, measured previously; read-out: Antiviral Activity IC50; cited from earlier work.
Another data set deals with MDCK cells. Conditions: cited from earlier work.

Read-outs that look alike come from different tables or passages of the source. A value given as a limit tells only on which side of the number the result lay.

For the compound “2,4-dioxo-4-phenylbutanoic acid [Compound 2]”, the “Inhibition of PAN endonuclease activity” value on PAN endonuclease is “inhibited PAN enzymatic activity in a dose-dependent manner”. Also, the “ITC binding stoichiometry N (compound per PAN)” value at PAN is listed as 1.86. Consider `O=C1Cc2ccccc2C(=O)N1O` [Compound 1], for which the “Inhibition of PAN endonuclease activity” value on PAN endonuclease was “inhibited PAN enzymatic activity in a dose-dependent manner”.

For `O=C(O)/C(O)=C/C(=O)C1(Cc2ccc(Cl)cc2)CCN(Cc2ccccc2)CC1` [Compound 3, L-742,001], the “Inhibition of PAN endonuclease activity” value at PAN endonuclease is recorded as “inhibited PAN enzymatic activity in a dose-dependent manner”. Also, the half-maximal inhibitory concentration (IC50) in the data set on influenza virus [1] (read-out: IC50, inhibition of viral replication in cell culture) is 0.35 µM. Further, the “Inhibition of viral replication in mice (qualitative)” value in the data set on influenza virus [2] is “dose-dependent inhibition of viral replication”. On to `Cn1cnc(-c2nc(C(=O)O)c(O)c(=O)[nH]2)c1` [Compound 4, 5-hydroxy-2-(1-methyl-1H-imidazol-4-yl)-6-oxo-1,6-dihydropyrimidine-4-carboxylic acid], for which the “Inhibition of PAN endonuclease activity” value on PAN endonuclease is given as “inhibit PAN activity”. In addition, the IC50 in data set [3] is above 50 µM. The CC50 at 72 h in “in vitro” was above 60 µM. On to `CC(=O)Nc1cccc(-c2nc(C(=O)O)c(O)c(=O)[nH]2)c1` [Compound 5, 2-(3-acetamidophenyl)-5-hydroxy-6-oxo-1,6-dihydropyrimidine-4-carboxylic acid], for which, at PAN endonuclease, the “Inhibition of PAN endonuclease activity” value was “inhibit PAN activity”. Further, the concentration for half-maximal inhibition (IC50) in [3] was above 50 µM. The compound further yielded a CC50 at 72 h in the data set “in vitro” of 48.7 ± 1.2 µM. With `O=C(O)c1cccc(O)c1O` [Compound 6, dihydroxybenzoic acid], the “Inhibition of PAN endonuclease activity” value on PAN endonuclease is reported as “little ability to inhibit PAN endonuclease activity”. As for `CC(C)/C=C1\N=C(CC(C)C)C(=O)N(O)C1=O` [Compound 7, Flutimide], the concentration for half-maximal inhibition (IC50) on influenza A polymerase [4] is 5.5 µM.

For the compound `CC(C)CC1=N/C(=C\c2ccc(F)cc2)C(=O)N(O)C1=O` [Compound 8], the “Fold increase in potency compared with Flutimide” value in the data set on influenza A polymerase [5] is given as 6 fold. On influenza A polymerase [4], the concentration for half-maximal inhibition (IC50) was 0.9 µM.

Consider `CC(C)CC1=N/C(=C\c2ccc(F)cc2)C(=O)NC1=O` [Compound 9], for which the 50% inhibitory concentration (IC50) at influenza A polymerase [4] is above 365 µM. In the case of `O=C1Cc2ccccc2CC(=O)N1O` [Compound 11], the IC50 at influenza A polymerase [4] is above 1000 µM. As to `CC(C)C(=O)C=C(O)C(=O)O` [Compound 13], in the data set with influenza A polymerase [5], the “Fold reduction in potency compared with 2” value was 2.6 fold. Further, the IC50 at influenza A polymerase [4] was 56.7 µM. `CC(=O)C=C(O)C(=O)O` [Compound 14]: the “Fold reduction in potency compared with 2” value in the data set on influenza A polymerase [5] was found to be 14 fold. The half-inhibitory concentration (IC50) on influenza A polymerase [4] is 307 µM. For `O=C(CC(O)C(=O)O)c1ccccc1` (centres unmarked) [Compound 16], on influenza A polymerase [4], the IC50 was above 500 µM. For the compound `NC(CC(=O)c1ccccc1)C(=O)O` (centres unmarked) [Compound 17], the IC50 at influenza A polymerase [4] was above 500 µM.

In the case of `O=C(O)/C(O)=C/S(=O)(=O)c1ccccc1` [Compound 19], the half-inhibitory concentration (IC50) at influenza A polymerase [4] is above 500 µM. Consider `O=C(O)/C(O)=C/C(=O)C1(Cc2ccc(Cl)cc2)CCCN(Cc2ccccc2)C1` [Compound 20, L-735,882], for which the half-inhibitory concentration (IC50) on influenza A polymerase [4] is 1.1 µM. The “Inhibition of viral replication in cell culture (qualitative)” value (“Inhibition … in cell culture (qualitative)” below) with influenza virus [1] is “dose-dependent inhibition of viral replication in cell culture”.

As to `O=C(O)/C(O)=C/C(=O)C1(Cc2ccc(Cl)cc2)CCCN(S(=O)(=O)Cc2ccccc2)C1` (centres unmarked) [Compound 21], on influenza A polymerase [4], the concentration for half-maximal inhibition (IC50) is 0.19 µM. The “Inhibition … in cell culture (qualitative)” value with influenza virus [1] is “dose-dependent inhibition of viral replication in cell culture”. With `O=C(O)/C(O)=C/C(=O)C1(Cc2ccc(Cl)cc2)CCN(CC2CCCCC2)CC1` [Compound 22], in the data set with influenza virus [1], the “Inhibition … in cell culture (qualitative)” value is reported as “dose-dependent inhibition of viral replication in cell culture”.

As to `COC(=O)c1nc(-c2cn(C)cn2)[nH]c(=O)c1O` [Compound 23], in data set [3], the half-maximal inhibitory concentration (IC50) was above 50 µM. For the same compound, in “in vitro”, the CC50 at 72 h is 53.2 ± 0.9 µM. In the case of `O=C(O)c1nc(-c2cnccn2)nc(O)c1O` [Compound 24], the IC50 in [6] was above 50 µM. Moreover, in the data set on MDCK cells, the CC50 is above 60 µM. As to `COC(=O)c1nc(-c2cnccn2)[nH]c(=O)c1O` [Compound 25], the IC50 in data set [3] was above 50 µM. In “in vitro”, the CC50 at 72 h was above 60 µM. Turning to `C[C@@H](NC(=O)c1nc(-c2cnccn2)[nH]c(=O)c1O)c1ccccc1` [Compound 26], in data set [6], the IC50 is 12.68 ± 0.08 µM. Besides, the CC50 with MDCK cells was above 60 µM.

These data come from paper PMC3410894, “Structural and Biochemical Basis for Development of Influenza Virus Inhibitors Targeting the PA Endonuclease” (PLoS Pathogens, 2012).
